From PMC10296061, “Inhibition of the Mitochondrial Carnitine/Acylcarnitine Carrier by Itaconate through Irreversible Binding to Cysteine 136: Possible Pathophysiological Implications” (Biomolecules, 2023)
Numbering of substitutions follows the chain as printed. Like-named read-outs stand apart in the source and are kept apart here.

How the values were obtained:
Format in all cases: biochemical
recombinant CAC (WT) = biological target: T1, recombinant CAC (WT) (Rattus norvegicus, UniProt P97521); test: [3H]carnitine/carnitine antiport in proteoliposomes reconstituted with recombinant WT CAC
T1 construct: made in house; host or cells: E. coli C0214
T1 sequence (P97521 1-301): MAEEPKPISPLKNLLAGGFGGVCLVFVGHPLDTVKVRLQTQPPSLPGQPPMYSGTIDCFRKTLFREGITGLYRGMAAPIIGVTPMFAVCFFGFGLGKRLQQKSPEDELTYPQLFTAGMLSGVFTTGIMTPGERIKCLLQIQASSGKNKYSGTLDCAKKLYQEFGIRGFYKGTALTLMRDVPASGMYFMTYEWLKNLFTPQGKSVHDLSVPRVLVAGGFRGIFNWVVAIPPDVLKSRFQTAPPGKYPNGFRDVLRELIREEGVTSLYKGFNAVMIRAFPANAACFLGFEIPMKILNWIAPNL
Protocol: (§1) As previously described, the pMW7-WTratCAC recombinant plasmid was used for over-expressing the rat CAC [22]. The overlap extension method was used to introduce the mutations; in the main time, NdeI and HindIII restriction sites were also added using appropriate primers. The PCR products were purified by the QIAEX II Gel Extraction Kit (QIAGEN) and digested with NdeI and HindIII and then ligated into the pMW7. All mutations were verified by DNA sequencing. The resulting plasmid constructs were transformed into E. coli C0214. Overexpression, inclusion body fraction preparation, and purification of the CAC proteins were performed as previously described.
As previously described, recombinant CAC (WT and mutants) and ORC1 proteins were used for proteoliposome formation. For experiments with native CAC, ORC1, or ANT proteins, rat liver mitochondria, or HeLa cell mitochondria, the latter for the CAC alone, were first purified using the standard procedure of cell disruption and differential centrifugation. Then proteins were extracted using 3% Triton X-100 and reconstituted as described for the recombinant proteins. The concentration of intraliposomal carnitine and ornithine was 15 mM and 30 mM, respectively, in all samples.
To test the transport activity of the CAC, 550 μL of proteoliposomes was passed through a Sephadex G-75 column to remove the external substrate. Six hundred μL of the turbid eluate was collected, divided into samples of 100 μL each, and used for transport measurement by the inhibitor-stop method. Transport was started by adding 0.1 mM [^3H]carnitine ([^3H]ornitine or [^3H]ATP) to proteoliposome samples and stopped with 1.5 mM NEM (N-ethylmaleimide) at the indicated time interval. In the control samples, NEM was added with the labeled substrate at time zero. Transport rates were measured in 10 min, i.e., within the initial linear range of the time course, at 25 °C. After terminating the transport reaction, the external substrate was removed by chromatography on the Sephadex G-75 column, and the intraliposomal radioactivity was measured. The experimental values were corrected by subtracting the controls.
Figure 1 Effect of itaconate on the native and recombinant mitochondrial carnitine/acylcarnitine (CAC). Dose–response analysis for itaconate inhibition was carried out using proteoliposomes reconstituted with native (○) or recombinant (●) CAC carriers. After 10 min of itaconate incubation, transport activity was started by adding 0.1 mM [^3H]carnitine and stopped after 10 min as described in Section 2. Percent of residual activity with respect to the control, without itaconate treatment, was reported. The values are the means ± SD from three independent experiments.
Figure 2 Effect of different pH on the inhibition of CAC protein by itaconate. (a) Proteoliposomes reconstituted with the recombinant CAC were incubated at various pHs (range pH 6.5–8.5) for 10 min with 10 mM itaconate. (b) Dose–response analysis of inhibition by itaconate of the recombinant CAC at pH 6.5. was performed. Proteoliposomes were incubated for 10 min at pH 6.5 with itaconate at the indicated concentrations. In both (a,b), the transport activity was measured for 10 min by adding to proteoliposomes 0.1 mM [^3H]carnitine.

CAC C155A mutant = biological target: T2, CAC C155A mutant (Rattus norvegicus, UniProt P97521, C155A); test: Transport assay in proteoliposomes, CAC mutant C155A; conditions: read-out: IC50 for itaconate inhibition
T2 construct: made in house; host or cells: E. coli C0214
T2 sequence (P97521 1-301 C155A): T1 sequence (P97521 1-301) with C155A
Protocol: as §1, with “described. […]” for “described.”
(§2) To test the transport activity of the CAC, 550 μL of proteoliposomes was passed through a Sephadex G-75 column to remove the external substrate. […] Transport rates were measured in 10 min, i.e., within the initial linear range of the time course, at 25 °C. After terminating the transport reaction, the external substrate was removed by chromatography on the Sephadex G-75 column, and the intraliposomal radioactivity was measured. […]
(§3) Figure 3 Identification of residue responsible for itaconate inhibition. […] Transport activity of the WT (○), C136A (●), C155A (Δ), C23V/C58V/C89S/C155V/C283S (▲), and C23V/C58V/C89S/C136V/C155V/C283S (□) was measured by adding 0.1 mM [^3H]carnitine after treatment by itaconate at the indicated concentrations. […]

CAC C136A mutant = biological target: T3, CAC C136A mutant (Rattus norvegicus, UniProt P97521, C136A); test: Transport assay in proteoliposomes, CAC mutant C136A; conditions: mutant lacking C136; read-out: IC50 for itaconate inhibition
T3 construct: made in house; host or cells: E. coli C0214
T3 sequence (P97521 1-301 C136A): T1 sequence (P97521 1-301) with C136A
Protocol: as §1, with “described. […]” for “described.”
as §2, §3

`C=C(CC(=O)O)C(=O)O` [itaconate] was tested, and the “reversal of inhibition by the reducing agent DTE” value (recombinant CAC (WT); 10 mM itaconate pre-incubation 10 min, 25 mM DTE, transport 30 min) was “not able to reverse the inhibition”, the inhibition at 10000 µM (recombinant CAC (WT); 10 mM itaconate, 10 min, pH 6.5, read-out: inhibition of transport) was about 80% and the inhibition of transport (recombinant CAC (WT); 10 mM itaconate, 10 min, pH 8.0 and pH 8.5) was “Virtually no inhibition”. The inhibition at 10000 µM (recombinant CAC (WT); 10 mM itaconate, pH 7.0, 10 min, without carnitine, unreacted compound removed by G-75, read-out: inhibition compared to the control) was about 55%, the type of inhibition (recombinant CAC (WT); WT, double reciprocal plot) was “non-competitive inhibition” and the Ki (recombinant CAC (WT); pH 7.0, 10 mM itaconate, Lineweaver-Burk plot) was 14 ± 2.6 mM. For the same compound, the IC50 (recombinant CAC (WT); recombinant CAC, 10 min incubation, 0.1 mM [3H]carnitine, pH 7.0, read-out: IC50 for itaconate inhibition of transport) was 8.4 ± 2.9 mM, the IC50 (recombinant CAC (WT); recombinant WT CAC, pH 6.5, 10 min incubation, read-out: IC50 for inhibition of transport at pH 6.5) was 3.8 ± 1 mM and the IC50 (CAC C155A mutant) was 3.8 ± 0.64 mM. The IC50 (CAC C136A mutant) was 15 ± 2.1 mM.
